This note sets out measurements from patent US20070027093A1, “Anorectic” (Japan Tobacco Inc., priority 2004, published 2007).

Where two headings read alike, the source gives them in different places. A value given as a limit tells only on which side of the number the result lay.

One experiment concerns SD(IGS) rats. The experiment can be described thus: Evaluation of compounds' effect on food consumption in rats. It is filed as in vivo. The following applies: Rattus norvegicus, fasted SD(IGS) rats, high fat diet; for inhibition in vivo at 1 mg/kg: 1 mg/kg oral; for inhibition in vivo at 10 mg/kg: 10 mg/kg oral. The source says:
Evaluation of Compounds' Effect on Food Consumption in Rats
SD(IGS) rats (Charles River Japan, Inc., 5-10 weeks of age, male) were used for the pharmacological tests. Rats were individually housed in the room set to a light cycle of lights-out at 10 am and lights-on at 10 pm, and were adapted to high fat diet (35% w/w). They were acclimated for more than 10 days prior to experiments under these conditions.
Based on the food consumption during acclimation and the body weight on the day of experiment, rats were grouped with no difference between groups.
As the test compound, Compounds A-P were used. These test compounds were suspended in 0.5% methyl cellulose solution.
Rats were fasted for about 24 hours before experiment. Each dose of the test compound was orally administered just after the lights-out, and immediately thereafter, the feeding of the high fat diet was resumed. The food weight was measured at 1, 4 and 8 hours after the resumption of the feeding to obtain the cumulative food consumption. The inhibitory rate on food consumption was determined by the following formula using the weight of the cumulative food consumption in each group.
The inhibitory rate on food consumption (%)=(1-test compound group/vehicle group)×100

The target in the next experiment is T1, human DGAT1 (Homo sapiens, UniProt O75907).
T1 construct: FLAG (N); made in house; host or cells: Sf21 insect cells (baculovirus, Bac-to-Bac system); cell membrane fraction
T1 sequence (O75907 1-488): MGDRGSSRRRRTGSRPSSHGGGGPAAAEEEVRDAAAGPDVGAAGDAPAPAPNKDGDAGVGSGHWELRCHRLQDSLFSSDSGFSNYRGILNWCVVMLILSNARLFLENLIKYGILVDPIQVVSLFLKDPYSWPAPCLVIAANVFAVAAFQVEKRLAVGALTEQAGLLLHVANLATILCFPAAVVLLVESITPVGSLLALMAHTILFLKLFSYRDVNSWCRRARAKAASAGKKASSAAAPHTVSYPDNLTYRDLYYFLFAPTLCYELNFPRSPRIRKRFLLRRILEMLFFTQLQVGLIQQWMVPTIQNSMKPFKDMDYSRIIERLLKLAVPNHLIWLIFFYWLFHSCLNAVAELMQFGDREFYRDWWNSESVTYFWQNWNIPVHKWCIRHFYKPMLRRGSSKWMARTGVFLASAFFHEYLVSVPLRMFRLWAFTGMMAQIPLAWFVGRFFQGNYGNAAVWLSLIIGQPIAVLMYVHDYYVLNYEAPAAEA
Put plainly: Assay of DGAT1 enzyme inhibitory activity (Scintillation Proximity Assay). The format is biochemical. The settings on record: human DGAT1 membrane fraction from Sf21 cells, 200 μM dioleoyl glycerol, 25 μM 14C decanoyl CoA, SPA; read-out: DGAT1 enzyme inhibitory activity (IC50 class). On the technique in general: Scintillation proximity formats need no separation of bound from free tracer.

Where [1] appears, read: cumulative food consumption 1 h after resumption of feeding, read-out: inhibitory rate on food consumption, 1 h.
Where [2] appears, read: cumulative food consumption 4 h after resumption of feeding, read-out: inhibitory rate on food consumption, 4 h.
The mark [3] stands for this setting: cumulative food consumption 8 h after resumption of feeding, read-out: inhibitory rate on food consumption, 8 h.

Description for human DGAT1: The enzyme source used for the assay was prepared using a human DGAT1 cDNA isolated from the human liver cDNA library. To be specific, a restriction enzyme cleaving sequence and a flag-labeling sequence were added onto the 5′ side and a restriction enzyme cleaving sequence was added onto the 3′ side of the human DGAT1 cDNA by PCR, and human flag tag DGAT1 baculovirus was prepared using Bac-to-Bac Baculovirus Expression System (Invitrogen). Sf21 insect cells were infected for 24-72 hours, recovered and ruptured in a homogenizing buffer using a microfluidizer. The homogenate was centrifuged at 45,000 rpm for 1 hour, and the cell membrane fractions were recovered and used as an enzyme source.
The DGAT inhibitory activity was measured by Scintillation Proximity Assay (SPA). Human DGAT1 membrane fraction (0.25 μg/well) was mixed with various concentrations of the compound and 200 μM of dioleoyl glycerol (enzyme substrate). […] Wheat Germ Agglutinin (WGA) SPA beads-suspended 6 mM HgCl2 (25 μL) was added to terminate the reaction, and the reaction mixture was kept at room temperature for 2 hours to allow adhesion of produced TG onto the SPA beads together with the cell membrane. The mixture was centrifuged at 2,500 rpm for 5 min to precipitate the SPA beads. The radioactivity was measured using Top Count.

Take `CC1(C)Oc2nc(C(F)(F)F)nc(N)c2N=C1c1ccc2c(c1)CCC21CCC(CC(=O)O)CC1` (centres unmarked) [Compound K]: the inhibition in vivo at 1 mg/kg in the experiment on SD(IGS) rats (setting [1]) turned out to be 19%; in the experiment on SD(IGS) rats (setting [2]), 37%; in the experiment on SD(IGS) rats (setting [3]) it was 22%.

Regarding `CC1(C)Oc2ncnc(N)c2N=C1c1ccc([C@H]2CC[C@H](CC(=O)O)CC2)cc1` [Compound A], the inhibition in vivo at 10 mg/kg in the experiment with SD(IGS) rats (setting [1]) is 29%; with SD(IGS) rats (setting [2]) it was 37%; in the experiment on SD(IGS) rats (setting [3]) it was 30%.

Regarding `Cc1nc(N)c2c(n1)OC(C)(C)C(c1ccc([C@H]3CC[C@H](CNC(=O)C(C)(C)O)CC3)cc1)=N2` [Compound I], the inhibition in vivo at 1 mg/kg with SD(IGS) rats (setting [1]) worked out at 30%; in the experiment on SD(IGS) rats (setting [2]), 1%; in the experiment with SD(IGS) rats (setting [3]), 4%.

On to `CC1(C)Oc2nc(C(F)(F)F)nc(N)c2N=C1c1ccc([C@H]2CC[C@H](CC(=O)O)CC2)c(Cl)c1` [Compound M], for which the inhibition in vivo at 1 mg/kg with SD(IGS) rats (setting [1]) came to 26%; with SD(IGS) rats (setting [2]), 12%; in the experiment on SD(IGS) rats (setting [3]) it was 14%.

With `Cc1nc(N)c2c(n1)OC(C)(C)C(c1ccc([C@H]3CC[C@H](CCc4nc(=O)on4C)CC3)cc1)=N2` [Compound F], the inhibition in vivo at 1 mg/kg in the experiment with SD(IGS) rats (setting [1]) came out at 11%; with SD(IGS) rats (setting [2]), 20%; in the experiment with SD(IGS) rats (setting [3]) it was 13%.

On to `Cc1nc(N)c2c(n1)OC(C)(C)C(c1ccc([C@H]3CC[C@H](CNC(=O)CO)CC3)c(Cl)c1)=N2` [Compound H], for which the inhibition in vivo at 1 mg/kg was 36% in the experiment with SD(IGS) rats (setting [1]), 36% with SD(IGS) rats (setting [2]) and 20% with SD(IGS) rats (setting [3]).

For the compound `Cc1nc(N)c2c(n1)OC(C)(C)C(c1ccc([C@H]3CC[C@H](CNC(=O)CO)CC3)cc1)=N2` [Compound E], the values for the inhibition in vivo at 1 mg/kg in the experiment on SD(IGS) rats (setting [1]), in the experiment with SD(IGS) rats (setting [2]) and in the experiment on SD(IGS) rats (setting [3]) were 6%, 15% and 20%, respectively.

In the case of `Cc1nc(N)c2c(n1)OC(C)(C)C(c1ccc([C@H]3CC[C@H](CNC(=O)C(C)(C)CO)CC3)cc1)=N2` [Compound G], the inhibition in vivo at 1 mg/kg in the experiment with SD(IGS) rats (setting [1]) amounted to 29%; in the experiment with SD(IGS) rats (setting [2]), 19%; in the experiment with SD(IGS) rats (setting [3]), 15%.

Consider `Cc1nc(N)c2c(n1)OC(C)(C)C(c1ccc([C@H]3CC[C@H](Cc4nc(=O)o[nH]4)CC3)cc1)=N2` [Compound J], for which the inhibition in vivo at 1 mg/kg in the experiment with SD(IGS) rats (setting [1]) came out at 8%; with SD(IGS) rats (setting [2]), 23%; in the experiment with SD(IGS) rats (setting [3]), 10%.

Take `Cc1nc(N)c2c(n1)OC(C)(C)C(c1ccc([C@H]3CC[C@H](CN4CCCC(O)C4=O)CC3)cc1)=N2` (some centres unmarked) [Compound L]: the values for the inhibition in vivo at 1 mg/kg in the experiment on SD(IGS) rats (setting [1]), in the experiment on SD(IGS) rats (setting [2]) and in the experiment on SD(IGS) rats (setting [3]) were 10%, 16% and 9%, respectively. Moreover, the IC50 (commonly the concentration needed to halve the response being measured) on human DGAT1 is 10 to 100 nM.

As for `Cc1nc(N)c2c(n1)OC(C)(C)C(c1ccc([C@H]3CC[C@H](CC(=O)O)CC3)cc1)=N2` [Compound D], the inhibition in vivo at 1 mg/kg worked out at 50% in the experiment on SD(IGS) rats (setting [1]), 27% in the experiment on SD(IGS) rats (setting [2]) and 17% with SD(IGS) rats (setting [3]).

As for `CC1(C)Oc2ncnc(N)c2C=C1c1ccc2c(c1)CC[C@]21CC[C@@H](CC(=O)O)CC1` [Compound P], the inhibition in vivo at 1 mg/kg in the experiment with SD(IGS) rats (setting [1]) turned out to be 20%; with SD(IGS) rats (setting [2]) it was 36%; in the experiment on SD(IGS) rats (setting [3]) it was 28%.

In the case of `Cc1nc(N)c2c(n1)OC(C)(C)C(c1ccc([C@H]3CC[C@H](CNC(N)=O)CC3)c(Cl)c1)=N2` [Compound O], the results for the inhibition in vivo at 1 mg/kg in the experiment on SD(IGS) rats (setting [1]), in the experiment on SD(IGS) rats (setting [2]) and with SD(IGS) rats (setting [3]) were 20%, 13% and 12%, respectively.

As to `CC1(C)Oc2ncnc(N)c2N=C1c1ccc([C@H]2CC[C@H](CC(=O)O)CC2)cc1` [Compound C], the inhibition in vivo at 1 mg/kg with SD(IGS) rats (setting [1]) was 24%; with SD(IGS) rats (setting [2]), 30%; in the experiment on SD(IGS) rats (setting [3]), 19%.

Consider `CC1(C)Oc2nc(C(F)(F)F)nc(N)c2N=C1c1ccc([C@H]2CC[C@H](CNC(N)=O)CC2)c(Cl)c1` [Compound N], for which the inhibition in vivo at 1 mg/kg in the experiment with SD(IGS) rats (setting [1]) stood at 17%; in the experiment with SD(IGS) rats (setting [2]) it was 6%; with SD(IGS) rats (setting [3]) it was 7%.

As to `CCCc1c(C(=O)OCC)c(C(=O)OCC)c2c(-c3ccccc3)cc(N3CCOCC3)nn12` [Compound B, Diethyl 2-morpholin-4-yl-4-phenyl-7-propylpyrrolo[1,2-b]pyridazine-5,6-dicarboxylate], the results for the inhibition in vivo at 10 mg/kg in the experiment on SD(IGS) rats (setting [1]), in the experiment on SD(IGS) rats (setting [2]) and with SD(IGS) rats (setting [3]) were 26%, 14% and 4%, respectively. The IC50 on human DGAT1 is above 100 nM.
